The source of these data is patent US9447028B2, “Therapeutic aryl-amido-aryl compounds and their use” (King's College London, priority 2009, dated 2016).

Assay [1] concerns the target T1, RARα (Homo sapiens, UniProt P10276).
T1 construct: gal4 (fusion partner); expressed in transfected cells; host or cells: COS-7
T1 sequence (P10276 183-417 limits assumed): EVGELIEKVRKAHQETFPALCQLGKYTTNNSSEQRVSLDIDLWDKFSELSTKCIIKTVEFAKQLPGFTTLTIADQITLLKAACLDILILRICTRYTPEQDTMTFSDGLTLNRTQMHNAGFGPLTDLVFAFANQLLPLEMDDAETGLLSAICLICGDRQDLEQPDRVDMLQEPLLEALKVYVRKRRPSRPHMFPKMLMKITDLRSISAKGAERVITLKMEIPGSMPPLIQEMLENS
Description: Transactivation assay for RAR alpha (gal4-RAR fusion, luciferase reporter, COS-7 cells). As to conditions: for RARα/RARβ ratio (*): fold-selectivity for RARα over RARβ; for RARα activity ratio: ratio of test compound EC50 to that of atRA on the same plate. It counts as cell-based. In outline: (§1)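 COS-7 cells co-transfected with gal4–RAR ligand-binding-domain fusion and pFR-luc reporter, then treated with compound in phenol-red-free DMEM (1% DMSO) for about one day. Luciferase read after lysis with BrightGlo; EC50 values from replicate experiments given as a ratio of means.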
(In general: Reporter assays use an easily measured gene product as a stand-in for the process of interest.)

The target of assay [2] is T2, RARβ (Homo sapiens, UniProt P10826).
T2 construct: gal4 (fusion partner); expressed in transfected cells; host or cells: COS-7
T2 sequence (P10826 183-417 limits assumed): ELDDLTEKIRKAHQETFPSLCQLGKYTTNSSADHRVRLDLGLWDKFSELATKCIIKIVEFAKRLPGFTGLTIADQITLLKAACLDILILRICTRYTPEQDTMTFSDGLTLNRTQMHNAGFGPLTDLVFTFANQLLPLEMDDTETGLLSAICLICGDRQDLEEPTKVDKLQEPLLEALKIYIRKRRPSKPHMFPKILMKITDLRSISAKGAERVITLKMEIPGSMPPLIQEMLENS
The assay can be described thus: Transactivation assay for RAR beta (gal4-RAR fusion, luciferase reporter, COS-7 cells). It counts as cell-based. As to conditions: ratio of test compound EC50 to that of atRA; inactive = no agonist action at the highest concentration tested. In outline:
as §1

Assay [3] has as its target T3, RARγ (Homo sapiens, UniProt P13631).
T3 construct: gal4 (fusion partner); expressed in transfected cells; host or cells: COS-7
T3 sequence (P13631 185-419 limits assumed): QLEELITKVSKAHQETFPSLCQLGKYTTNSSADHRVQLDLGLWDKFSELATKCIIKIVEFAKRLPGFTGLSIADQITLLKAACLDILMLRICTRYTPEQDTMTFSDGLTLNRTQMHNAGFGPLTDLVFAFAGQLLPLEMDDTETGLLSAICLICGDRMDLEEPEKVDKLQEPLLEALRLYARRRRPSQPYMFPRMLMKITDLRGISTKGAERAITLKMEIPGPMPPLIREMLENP
Description: Transactivation assay for RAR gamma (gal4-RAR fusion, luciferase reporter, COS-7 cells). As to conditions: ratio of test compound EC50 to that of atRA; inactive = no agonist action at the highest concentration tested. It counts as cell-based. In outline:
as §1

The test system of assay [4] is cortical neurons. Description: Survival of cortical neurons in the presence of 10 μM Aβ42. The format is cell-based, mouse. The conditions noted are these: for % Surviving Neurons: 10 μM Aβ42, 3 days; for Neuronal survival in the presence of Aβ42 (in words): 10 μM Aβ42, 0.01-1 μM agonist, compared to control cultures treated only with Aβ42. The protocol: (§2) Neuronal cultures were prepared from embryonic E19 mouse embryos. Fetal brain cortices were dissected and freed from meninges. […] Cortical cells (1×10^5) were plated onto poly-L-lysine (10 μg/mL) coated glass coverslips in 24-well tissue culture plates. They were cultured in Neurobasal medium containing B27 supplement, 2 mM glutamine, 20 μg/mL penicillin stepromycin, and 0.25% glucose. They were maintained for 7 days before been treated. For each treatment, 3 coverslips were used and the experiment was repeated 3 times.
After 3 days of culture, media was removed and Hoechst 33342 (10 μM) and propidium iodide (10 μM) in PBS was added to the wells for 15 minutes. Only neurons positive for Hoechst 33342 but negative for propidium iodide were counted as surviving neurons. In addition, cortical cultures were treated with agonist alone (0.1 μM) and assayed for chAT, APP, and ADAM10. The antibodies used were α chAT (1:200, Chemicon™), α APP (1:100, Chemicon™) and α ADAM10 (1:200, Chemicon™). Secondary antibody used was anti-rabbit Cy3 or Cy5 conjugated (Jackson™, used at 1:1000). The nuclear marker DAPI (1 μg/mL) was used to stain all cells.
Cortical cultures were treated after 7 days with 10 μM Aβ42 and supplemented with 0.01-1 μM of agonist. After 3 days, the number of surviving cells was determined. […] As atRA is a weak pan-agonist of all the RARs, it was decided to identify the specific receptor involved in this process using RAR specific agonists.

The subject of assay [5] is amyloid precursor protein (APP). Description: APP expression in cultured cortical neurons. The format is cell-based, mouse. Set-up: dose or concentration left out as unconfirmed. As to conditions: Agonist; analysed 3 days later (Table 4). The protocol: as §2
(§3) After 3 days of culture, media was removed and Hoechst 33342 (10 μM) and propidium iodide (10 μM) in PBS was added to the wells for 15 minutes. Only neurons positive for Hoechst 33342 but negative for propidium iodide were counted as surviving neurons. […] The antibodies used were α chAT (1:200, Chemicon™), α APP (1:100, Chemicon™) and α ADAM10 (1:200, Chemicon™). Secondary antibody used was anti-rabbit Cy3 or Cy5 conjugated (Jackson™, used at 1:1000). The nuclear marker DAPI (1 μg/mL) was used to stain all cells. […]

For assay [6], the system named is disintegrin-metalloproteinases 10 (ADAM10). Description: ADAM10 expression in cultured cortical neurons. The format is cell-based, mouse. As to conditions: Agonist; analysed 3 days later (Table 5, introduced as ADAM10 data). Set-up: dose or concentration left out as unconfirmed. The protocol: as §2, §3
Assay [7] deals with Aβ40. Description: Aβ40 level in cortex of Tg2576 mice after oral agonist (sandwich ELISA). The format is in vivo. The conditions noted are these: chow with 1 mg/kg agonist for 3 months, six months of age; control = 100. The protocol: (§4) Twenty seven 3 month old Tg2576 mice (Taconic™) were split into 3 groups of 9. One group was fed normal chow, the other groups were fed with 1 mg/Kg RARα agonist, either AM580 or BMS194753. Animals were analysed at 6 and 9 months of age.
(§5) Animals were perfused with PBS. The brain was dissected and one hemisegment was fixed in 4% PFA overnight, 20% sucrose for 3 days, embedded in OCT compound and stored frozen. The cortex was removed form the other hemisegment and the protein extracted.
(§6) To measure Aβ40 and Aβ42 levels, a sandwich ELISA assay kit (Biosource™) was used according to the manufactures instructions. A 1:5000 of the guanidine-soluble extracts were made with TBS containing 5% BSA and 1×protease inhibitor (Calbiochem™) and centrifuged at 16000×g for 20 minutes at 4° C. Samples were diluted 1:10000 in sample diluent provided by the manufacturer.
(§7) These are Tg2576 mice, which over-express the Swedish mutation of APP. These mice overproduce Aβ40 and Aβ42. Three month old mice were fed for 3 months with normal chow or chow supplemented with 1 mg/kg of agonist. At six months of age, there is a dramatic decrease in both Aβ40 and Aβ42 levels in the mice fed with the RARα agonist, as compared to the normal fed mice.
In general terms: In an ELISA, binding on a coated surface is turned into a signal by an enzyme label.

Assay [8] relates to Aβ42. The assay can be described thus: Aβ42 level in cortex of Tg2576 mice after oral agonist (sandwich ELISA). The format is in vivo. The conditions noted are these: chow with 1 mg/kg agonist for 3 months, six months of age; control = 100. The protocol: as §4, §5, §6, §7
Assay [9] deals with choline acetyltransferase (chAT). The assay can be described thus: chAT expression in cultured cortical neurons. It counts as cell-based, mouse. Details: dose or concentration left out as unconfirmed. The conditions noted are these: Agonist; analysed 3 days later. The protocol:
as §2, §3

With `COc1cc(C(=O)Nc2ccc(C(=O)O)cc2)cc(OC(C)C)c1Cl` [AAA-118, 4-(4-Chloro-3-isopropoxy-5-methoxybenzamido)benzoic acid], in [1], the “RARα/RARβ ratio (*)” value amounted to 47 and the RARα activity ratio amounted to 36. In addition, the RARβ activity ratio in assay [2] is 1700. In addition, the RARγ activity ratio in assay [3] is 933333.

On to `CC(C)Oc1cc(C(=O)Nc2ccc(C(=O)O)cc2)cc(OC(C)C)c1F` [AAA-119, 4-(4-Fluoro-3,5-diisopropoxybenzamido)benzoic acid], for which, in [1], the “RARα/RARβ ratio (*)” value came out at 192 and the RARα activity ratio amounted to 26. The RARβ activity ratio in [2] is 5000. Also, in assay [3], the RARγ activity ratio is on record as over 42000.

With `CC(C)Oc1cc(C(=O)Nc2ccc(C(=O)O)cc2)cc(C(F)(F)F)c1OC(C)C` [AAA-120, 4-(3,4-Diisopropoxy-5-(trifluoromethyl)benzamido)benzoic acid], in [1], the “RARα/RARβ ratio (*)” value amounted to 157 and the RARα activity ratio amounted to 0.89. Further, the RARβ activity ratio in assay [2] turned out to be 142. In assay [3], the RARγ activity ratio worked out at 2162.

Take `CC1(C)CCC(C)(C)c2cc(C(=O)Nc3ccc(C(=O)O)cc3)ccc21` [AM 580]: the “% Surviving Neurons” value in [4] (0.01 μM agonist) came to 52 ± 7%; in [4] (0.1 μM agonist) it was 70 ± 6%; in assay [4] (1.0 μM agonist) it was 99 ± 9%. In [4], the “Neuronal survival in the presence of Aβ42 (in words)” value (shortened to “Neuronal survival in the presence”) is reported as “notably better”. Besides, the “Number of APP Neurons” value in assay [5] was 11 ± 2; in assay [6], 19 ± 3. Further, the “% of Aβ40” value in assay [7] is 4 ± 1%. Besides, the “% of Aβ42” value in [8] worked out at 8 ± 1%.

Take `CC1(C)C(=O)C(C)(C)c2cc(C(=O)Nc3ccc(C(=O)O)cc3)ccc21` [BMS 194753]: the figures for the “% Surviving Neurons” value in assay [4] (0.01 μM agonist), in [4] (0.1 μM agonist) and in assay [4] (1.0 μM agonist) were 57 ± 7%, 69 ± 3% and 88 ± 4%, respectively. Further, the “Neuronal survival in the presence” value in assay [4] is reported as “notably better”. Also, the “Number of chAT Neurons” value in assay [9] is recorded as 37 ± 3. For the same compound, the “Number of APP Neurons” value in assay [5] was 10 ± 2; in assay [6], 20 ± 2. Also, the “% of Aβ40” value in assay [7] is given as 3 ± 0.5%. Besides, the “% of Aβ42” value in [8] was 7 ± 1%.

As for `O=C(O)c1ccc2cc(-c3ccc(O)c(C45CC6CC(CC(C6)C4)C5)c3)ccc2c1` [CD 437], the “% Surviving Neurons” value in assay [4] (0.01 μM agonist) is 53 ± 3%; in assay [4] (0.1 μM agonist), 30 ± 11%; in assay [4] (1.0 μM agonist), 26 ± 10%. Moreover, the “Neuronal survival in the presence” value in assay [4] is on record as “notably worse”. In addition, in assay [9], the “Number of chAT Neurons” value is 2 ± 1. Besides, the “Number of APP Neurons” value in [5] was 22 ± 3; in assay [6] it was 2 ± 0.75.

For the compound `COc1ccc(-c2ccc3cc(C(=O)O)ccc3c2)cc1C1(C)CCCCC1` [CD 2019], the “% Surviving Neurons” value in assay [4] (0.01 μM agonist) amounted to 52 ± 3%; in [4] (0.1 μM agonist), 58 ± 5%; in assay [4] (1.0 μM agonist), 60 ± 5%. Moreover, in [4], the “Neuronal survival in the presence” value is on record as “notably worse”. For the same compound, the “Number of chAT Neurons” value in [9] is 8 ± 1. Further, the “Number of APP Neurons” value in assay [5] was found to be 23 ± 2; in assay [6], 1 ± 0.5.

For the compound `CCOc1ccc(C(=O)Nc2ccc(C(=O)O)cc2)cc1C(F)(F)F` [XXX-01, 4-(4-Ethoxy-3-(trifluoromethyl)benzamido)benzoic acid, reference compound], in assay [1], the “RARα/RARβ ratio (*)” value is 7.9 and the RARα activity ratio came out at 327. Moreover, the RARβ activity ratio in [2] came out at 2570. Moreover, the RARγ activity ratio entry in assay [3] is “inactive”.

As for `O=C(O)c1ccc(NC(=O)c2cc(Cl)cc(Cl)c2)cc1` [XXX-03, 4-(3,5-Dichlorobenzamido)benzoic acid, reference compound], in assay [1], the “RARα/RARβ ratio (*)” value is recorded as 7.1 and the RARα activity ratio was 90. Moreover, the RARβ activity ratio in [2] was determined as 642. Moreover, the RARγ activity ratio entry in assay [3] was “inactive”.

For the compound `CC1=C(/C=C/C(C)=C/C=C/C(C)=C/C(=O)O)C(C)(C)CCC1` [atRA, all trans retinoic acid], the “% Surviving Neurons” value in assay [4] (0.01 μM agonist) is 53 ± 4%; in assay [4] (0.1 μM agonist), 69 ± 4%; in assay [4] (1.0 μM agonist), 82 ± 4%. Besides, the “Neuronal survival in the presence” value in assay [4] was “increase in cell survival with increasing dose”. Also, in assay [9], the “Number of chAT Neurons” value is on record as 16 ± 2. For the same compound, the “Number of APP Neurons” value in assay [5] came out at 15 ± 2; in assay [6] it was 11 ± 1.5. Further, the “RARα/RARβ ratio (*)” value in assay [1] came to 1. In [1], the RARα activity ratio was 1. In addition, in assay [2], the RARβ activity ratio amounted to 1. Further, the RARγ activity ratio in assay [3] was 1.
